In test [1] the target is T1, Nuclear factor NF-kappa-B complex (Homo sapiens) (UniProt Q00653+P19838+Q04206). The test is described as follows: Inhibition of NFkappaB (unknown origin) expressed in LPS-stimulated HEK293-NF-kappaB-luc cells assessed as luminescence signals measured by relative light units at 100 ug/mL pre-treated for 4 hrs before LPS challenge for 24 hrs by luciferase assay. The format is cell-based.

Test [2] deals with T1, Nuclear factor NF-kappa-B complex (Homo sapiens). The test is described as follows: Inhibition of NFkappaB (unknown origin) expressed in LPS-stimulated HEK293-NF-kappaB-luc cells assessed as luminescence signals measured by relative light units at 500 ug/mL pre-treated for 4 hrs before LPS challenge for 24 hrs by luciferase assay. The format is cell-based.
Test [3] shares this target. The test is described as follows: Inhibition of NFkappaB (unknown origin) expressed in LPS-stimulated HEK293-NF-kappaB-luc cells assessed as luminescence signals measured by relative light units at 1 ug/mL pre-treated for 4 hrs before LPS challenge for 24 hrs by luciferase assay. The format is cell-based.
Test [4] shares this target. The experiment in a line: Inhibition of NFkappaB (unknown origin) expressed in LPS-stimulated HEK293-NF-kappaB-luc cells assessed as luminescence signals measured by relative light units at 10 ug/mL pre-treated for 4 hrs before LPS challenge for 24 hrs by luciferase assay. The format is cell-based.
For the next test, the target named is Dipeptidyl peptidase 4 (Homo sapiens, UniProt P27487). The test is described as follows: Inhibition of DPP4 in human plasma using Gly-Pro-AMC substrate incubated for 20 mins by fluorometry.
Chain of Dipeptidyl peptidase 4 (P27487 whole entry): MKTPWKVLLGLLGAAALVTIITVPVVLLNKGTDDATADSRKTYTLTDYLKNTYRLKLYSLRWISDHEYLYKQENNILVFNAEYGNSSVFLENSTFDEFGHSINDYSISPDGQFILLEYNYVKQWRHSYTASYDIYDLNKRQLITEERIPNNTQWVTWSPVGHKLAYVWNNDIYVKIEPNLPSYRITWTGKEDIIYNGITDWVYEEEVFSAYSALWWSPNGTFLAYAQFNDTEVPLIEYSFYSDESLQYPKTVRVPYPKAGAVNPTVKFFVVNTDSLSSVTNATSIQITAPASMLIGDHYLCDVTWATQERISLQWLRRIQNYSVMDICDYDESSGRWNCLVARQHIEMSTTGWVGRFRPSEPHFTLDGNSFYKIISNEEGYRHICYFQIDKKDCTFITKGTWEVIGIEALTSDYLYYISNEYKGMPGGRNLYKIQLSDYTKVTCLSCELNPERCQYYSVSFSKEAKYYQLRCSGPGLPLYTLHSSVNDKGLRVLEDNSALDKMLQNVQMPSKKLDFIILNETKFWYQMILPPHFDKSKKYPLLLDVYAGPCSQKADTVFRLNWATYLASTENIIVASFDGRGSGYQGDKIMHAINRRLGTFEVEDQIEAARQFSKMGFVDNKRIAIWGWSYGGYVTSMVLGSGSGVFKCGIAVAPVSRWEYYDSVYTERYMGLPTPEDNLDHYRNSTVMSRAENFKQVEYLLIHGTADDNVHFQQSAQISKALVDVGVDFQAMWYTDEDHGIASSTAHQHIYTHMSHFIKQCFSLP

The source made the active and inactive calls. The rule behind the calls is not given here.

T1 sequence (P19838 whole entry, looked up): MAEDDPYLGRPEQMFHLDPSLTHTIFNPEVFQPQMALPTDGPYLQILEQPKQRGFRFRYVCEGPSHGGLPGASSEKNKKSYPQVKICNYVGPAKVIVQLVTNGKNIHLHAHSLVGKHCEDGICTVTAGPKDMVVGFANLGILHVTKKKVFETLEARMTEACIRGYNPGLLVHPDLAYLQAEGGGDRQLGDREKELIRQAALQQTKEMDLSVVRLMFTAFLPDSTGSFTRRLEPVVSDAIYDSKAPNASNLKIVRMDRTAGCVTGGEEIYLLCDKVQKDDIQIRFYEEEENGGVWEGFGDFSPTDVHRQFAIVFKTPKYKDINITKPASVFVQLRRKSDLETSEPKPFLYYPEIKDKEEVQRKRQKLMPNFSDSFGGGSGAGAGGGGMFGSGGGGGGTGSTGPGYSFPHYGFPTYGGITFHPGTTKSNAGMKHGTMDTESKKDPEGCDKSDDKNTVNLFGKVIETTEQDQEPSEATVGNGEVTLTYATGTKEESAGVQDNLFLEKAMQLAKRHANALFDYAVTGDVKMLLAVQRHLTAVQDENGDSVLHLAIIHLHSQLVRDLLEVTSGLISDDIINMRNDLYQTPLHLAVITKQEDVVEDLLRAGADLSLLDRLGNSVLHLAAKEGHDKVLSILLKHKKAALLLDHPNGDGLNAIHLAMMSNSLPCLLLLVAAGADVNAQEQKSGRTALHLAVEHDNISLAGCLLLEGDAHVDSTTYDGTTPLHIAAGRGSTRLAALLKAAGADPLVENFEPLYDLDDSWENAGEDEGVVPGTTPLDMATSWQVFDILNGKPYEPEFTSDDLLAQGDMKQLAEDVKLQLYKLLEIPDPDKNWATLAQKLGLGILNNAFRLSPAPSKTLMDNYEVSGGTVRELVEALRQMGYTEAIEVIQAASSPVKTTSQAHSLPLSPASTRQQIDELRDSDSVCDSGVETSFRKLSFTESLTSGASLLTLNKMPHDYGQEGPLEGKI
T1 sequence (Q00653 whole entry, looked up): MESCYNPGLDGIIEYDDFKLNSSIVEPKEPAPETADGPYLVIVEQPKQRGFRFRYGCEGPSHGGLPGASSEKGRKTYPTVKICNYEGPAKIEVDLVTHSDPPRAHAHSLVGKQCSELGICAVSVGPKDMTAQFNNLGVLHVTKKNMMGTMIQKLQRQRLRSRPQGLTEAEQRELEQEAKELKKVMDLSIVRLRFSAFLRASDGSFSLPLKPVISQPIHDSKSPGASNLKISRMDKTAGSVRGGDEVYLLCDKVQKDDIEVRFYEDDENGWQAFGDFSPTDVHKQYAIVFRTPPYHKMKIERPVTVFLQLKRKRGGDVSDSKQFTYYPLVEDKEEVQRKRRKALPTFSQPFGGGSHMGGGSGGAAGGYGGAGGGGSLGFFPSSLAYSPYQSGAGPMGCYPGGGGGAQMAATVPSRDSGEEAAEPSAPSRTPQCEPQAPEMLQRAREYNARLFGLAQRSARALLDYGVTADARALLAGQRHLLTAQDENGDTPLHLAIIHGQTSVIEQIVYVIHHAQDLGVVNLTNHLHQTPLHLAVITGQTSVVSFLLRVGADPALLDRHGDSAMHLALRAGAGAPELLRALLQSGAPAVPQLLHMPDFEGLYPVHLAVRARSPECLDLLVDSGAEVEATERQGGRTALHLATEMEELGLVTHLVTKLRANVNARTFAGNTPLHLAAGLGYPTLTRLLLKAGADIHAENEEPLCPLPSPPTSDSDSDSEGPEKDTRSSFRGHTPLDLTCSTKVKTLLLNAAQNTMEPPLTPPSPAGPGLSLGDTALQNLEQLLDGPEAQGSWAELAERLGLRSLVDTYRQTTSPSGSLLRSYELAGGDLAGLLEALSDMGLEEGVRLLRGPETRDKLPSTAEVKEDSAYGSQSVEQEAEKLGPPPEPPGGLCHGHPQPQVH
T1 sequence (Q04206 whole entry, looked up): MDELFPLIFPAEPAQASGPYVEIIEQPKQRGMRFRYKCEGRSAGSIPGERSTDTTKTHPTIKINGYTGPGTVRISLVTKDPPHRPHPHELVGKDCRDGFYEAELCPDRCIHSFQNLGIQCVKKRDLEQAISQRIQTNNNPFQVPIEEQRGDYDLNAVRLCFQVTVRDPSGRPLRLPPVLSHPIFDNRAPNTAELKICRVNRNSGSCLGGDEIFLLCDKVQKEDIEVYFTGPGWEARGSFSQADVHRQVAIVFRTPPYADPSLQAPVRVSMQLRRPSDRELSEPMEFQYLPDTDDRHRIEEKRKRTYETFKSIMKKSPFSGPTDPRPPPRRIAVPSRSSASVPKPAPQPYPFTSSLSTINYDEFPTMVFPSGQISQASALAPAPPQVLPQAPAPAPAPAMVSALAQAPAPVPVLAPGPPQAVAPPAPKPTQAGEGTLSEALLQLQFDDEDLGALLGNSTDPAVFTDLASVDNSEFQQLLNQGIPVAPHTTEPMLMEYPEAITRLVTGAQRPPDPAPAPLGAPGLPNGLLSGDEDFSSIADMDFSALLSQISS

Take `CC1(C)CC[C@]2(C(=O)O[C@@H]3O[C@H](CO)[C@@H](O)[C@H](O)[C@H]3O)[C@H](O)C[C@]3(C)C(=CC[C@@H]4[C@@]5(C)CC[C@H](O[C@@H]6O[C@H](CO)[C@@H](O)[C@H](O)[C@H]6O[C@@H]6O[C@H](CO)[C@@H](O)[C@H](O)[C@H]6O)C(C)(C)[C@@H]5CC[C@]43C)[C@@H]2C1`: the outcome in test [1], in test [2], in test [3] and in test [4] was inactive.

`C=C(C)[C@@H]1CC[C@]2(C(=O)O[C@@H]3O[C@H](CO)[C@@H](O)[C@H](O)[C@H]3O)CC[C@]3(C)[C@H](CC[C@@H]4[C@@]5(C)CC[C@H](O[C@@H]6O[C@H](CO)[C@@H](O)[C@H](O)[C@H]6O)C(C)(C)[C@@H]5CC[C@]43C)[C@@H]12`: the result in test [1], in test [2], in test [3] and in test [4] was inactive.

As for `C[C@H]1[C@H]2[C@H]3CC[C@@H]4[C@@]5(C)CC[C@H](O[C@@H]6O[C@H](CO)[C@@H](O)[C@H](O)[C@H]6O)C(C)(C)[C@@H]5CC[C@@]4(C)[C@]3(C)CC[C@@]2(CO)CC[C@]1(C)O`, the RLU in test [1] turned out to be 0.47; in test [2], 0.5; in test [3], 0.18; in test [4] it was 0.24.

With `CC1(C)CC[C@]2(C(=O)O[C@@H]3O[C@H](CO)[C@@H](O)[C@H](O)[C@H]3O)[C@H](O)C[C@]3(C)C(=CC[C@@H]4[C@@]5(C)CC[C@H](O[C@@H]6O[C@H](CO)[C@@H](O)[C@H](O)[C@H]6OS(=O)(=O)O)C(C)(C)[C@@H]5CC[C@]43C)[C@@H]2C1`, the RLU in test [1] was 0.23; in test [2], 0.07; in test [3], -0.01; in test [4] it was 0.16.

With `CC(C)[C@H]1C[C@H]2O[C@@]2(C)[C@@H](O)[C@H]1O[C@@H]1O[C@H](COC(=O)/C=C/c2ccc(O)c(O)c2)[C@@H](O)[C@H](O)[C@H]1O` (relative stereo), the outcome in test [1], in test [2], in test [3] and in test [4] was inactive.

On to `CC(C)[C@H]1C[C@H]2O[C@@]2(C)[C@@H](O)[C@H]1O[C@@H]1O[C@H](CO)[C@@H](O)[C@H](O)[C@H]1O` (relative stereo), for which the result in test [1], in test [2], in test [3] and in test [4] was inactive.

Regarding `C=CC(C)(O)CC/C=C(\C)CC/C=C(\C)CO[C@@H]1O[C@H](CO)[C@@H](O)[C@H](O)[C@H]1O` (some centres not stated), the RLU in test [1] is 0.26; in test [2], 0.47; in test [3] it was 0.04; in test [4], 0.21.

For the compound `CC1(C)CC[C@]2(C(=O)O[C@@H]3O[C@H](CO)[C@@H](O)[C@H](O)[C@H]3O)CC[C@]3(C)C(=CC[C@@H]4[C@@]5(C)CC[C@H](O[C@@H]6O[C@H](CO)[C@@H](O)[C@H](O)[C@H]6O[C@@H]6O[C@H](CO)[C@@H](O)[C@H](O)[C@H]6O)C(C)(C)[C@@H]5CC[C@]43C)[C@@H]2C1`, the RLU in test [1] was 0.47; in test [2], 0.59; in test [3] it was 0.09; in test [4] it was 0.23.

Take `C[C@H]1[C@H]2[C@H]3CC[C@@H]4[C@@]5(C)CC[C@H](O[C@@H]6O[C@H](CO)[C@@H](O)[C@H](O)[C@H]6O)C(C)(C)[C@@H]5CC[C@@]4(C)[C@]3(C)C[C@H](O)[C@@]2(C)CC[C@]1(C)O`: the outcome in test [1], in test [2], in test [3] and in test [4] was inactive.

`CC#CC#CC#C/C=C/C=C/C(CCO)O[C@@H]1O[C@H](CO)[C@@H](O)[C@H](O)[C@H]1O` (some centres not stated): on Dipeptidyl peptidase 4, the IC50 – broadly, the concentration needed to halve the response being measured – was above 100 µM.

As to `CC1(C)CC[C@]2(C(=O)O[C@@H]3O[C@H](CO)[C@@H](O)[C@H](O)[C@H]3O)CC[C@]3(C)C(=CC[C@@H]4[C@@]5(C)CC[C@H](O[C@@H]6O[C@H](CO)[C@@H](O)[C@H](O)[C@H]6O)C(C)(C)[C@@H]5CC[C@]43C)[C@@H]2C1`, the outcome in test [1], in test [2], in test [3] and in test [4] was inactive.

Take `CC1(C)CC[C@]2(C(=O)O[C@@H]3O[C@H](CO)[C@@H](O)[C@H](O)[C@H]3O)[C@@H](O)C[C@]3(C)C(=CC[C@@H]4[C@@]5(C)CC[C@H](O[C@@H]6O[C@H](CO)[C@@H](O)[C@H](O)[C@H]6O)C(C)(C)[C@@H]5CC[C@]43C)[C@@H]2C1`: the result in test [1], in test [2], in test [3] and in test [4] was inactive.

As for `C=CC(O)C(/C=C/C#CC#CC#CC)O[C@@H]1O[C@H](CO)[C@@H](O)[C@H](O)[C@H]1O` (some centres not stated), on Dipeptidyl peptidase 4, the IC50 is above 100 µM.

Regarding `CC1(C)CC[C@]2(C(=O)O[C@@H]3O[C@H](CO)[C@@H](O)[C@H](O)[C@H]3O)[C@H](O)C[C@]3(C)C(=CC[C@@H]4[C@@]5(C)CC[C@H](O[C@@H]6O[C@H](CO)[C@@H](O)[C@H](O)[C@H]6O)C(C)(C)[C@@H]5CC[C@]43C)[C@@H]2C1`, the RLU in test [1] turned out to be 0.33; in test [2], 0.5; in test [3] it was 0.08; in test [4], 0.22.

As to `CC1(C)[C@@H](O[C@@H]2O[C@H](CO)[C@@H](O)[C@H](O)[C@H]2O)CC[C@]2(C)[C@H]3CC=C4[C@@H]5C[C@](C)(CO)CC[C@]5(C)[C@@H](O)C[C@@]4(C)[C@]3(C)CC[C@@H]12`, the outcome in test [1], in test [2], in test [3] and in test [4] was inactive.

As for `CC1(C)C=C2[C@H]3CC[C@@H]4[C@@]5(C)CC[C@H](O[C@@H]6O[C@H](CO)[C@@H](O)[C@H](O)[C@H]6O[C@@H]6O[C@H](CO)[C@@H](O)[C@H](O)[C@H]6O)C(C)(C)[C@@H]5CC[C@@]4(C)[C@]3(C)CC[C@@]2(C(=O)O[C@@H]2O[C@H](CO)[C@@H](O)[C@H](O)[C@H]2O)CC1`, the RLU in test [1] was found to be 0.49; in test [2] it was 0.72; in test [3], 0.01; in test [4], 0.06.

Regarding `C[C@]12CCC(=O)C=C1CC[C@@H]1[C@@H]2[C@@H](O)C[C@@]2(C)[C@H]1CC[C@]2(O)C(=O)CO`, the RLU is 0.45 in test [1], 0.64 in test [2], 0.15 in test [3] and 0.32 in test [4].

The values are drawn from ChEMBL document CHEMBL3351808, “Thiophenes, polyacetylenes and terpenes from the aerial parts of Eclipata prostrate” (Bioorg Med Chem, 2014).
